Experimental data published in patent publication US7101878B1 (Agouron Pharmaceuticals, Inc., priority 1998, dated 2006).
Entries after “also recorded” stand apart in the source; their conditions may differ. One block for each compound: values may come before it. Where a SMILES comes first, the peptide text is derived from it. [ ]: non-standard residue; d: D form. The star is where a group is joined. dPhe(4-Cl) = N[C@H](Cc1ccc(Cl)cc1)C(=O)O; d2Nal = N[C@H](Cc1ccc2ccccc2c1)C(=O)O; Lys(iPr) = CC(C)NCCCC[C@H](N)C(=O)O; d3Pal = N[C@H](Cc1cccnc1)C(=O)O; Nicotinoyl = O=C(c1cccnc1)*

Tests used:
hGnRH receptor = target: T1, hGnRH receptor (Homo sapiens, UniProt P30968); assay: Total inositol phosphates measurement, 293 cells containing the hGnRH receptor; assay type: cell-based; conditions: for GnRH functional: no species or readout annotated
T1 construct: expressed in transfected cells; host or cells: HEK 293 (hGnRH-R/293, from Dr. Stuart Sealfon)
T1 sequence (P30968 1-328): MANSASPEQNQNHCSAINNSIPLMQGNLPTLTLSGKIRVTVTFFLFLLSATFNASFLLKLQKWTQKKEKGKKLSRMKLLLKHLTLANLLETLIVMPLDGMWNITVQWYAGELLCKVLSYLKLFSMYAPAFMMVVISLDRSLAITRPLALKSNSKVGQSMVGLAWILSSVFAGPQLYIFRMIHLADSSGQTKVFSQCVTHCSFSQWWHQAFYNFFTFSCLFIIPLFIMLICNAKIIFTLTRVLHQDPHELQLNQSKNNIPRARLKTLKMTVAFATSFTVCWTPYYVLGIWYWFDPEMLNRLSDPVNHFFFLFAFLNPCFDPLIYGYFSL
Protocol: To assess the activity of the compounds as agonists or antagonists, an assay measuring accumulation of total inositol phosphates was employed. 293 cells containing the hGnRH receptor were plated onto 24-well plates (approximately 200,000 cells/well) using DMEM media. […] The medium was aspirated and the cells rinsed with serum-free DMEM. The medium was aspirated and the cells were then treated with test compounds or vehicle for 30 minutes at 37° C. […] The media was replaced with ice-cold 10 mM formic acid, which stopped the reaction and also served to extract cellular lipids. Inositol phosphates were separated by ion-exchange chromatography on Dowex columns, which were washed with 2.5 mL of 10 mM myoinositol and 10 mM formic acid. The columns were then washed with 5 mL of 60 mM sodium formate and […], and total inositol phosphates were eluted with 5 mL 1M ammonium formate, 0.1 M formic acid. The column eluates were added to liquid scintillation vials containing 15 ml of scintillation cocktail and were counted by liquid scintillation counting.
This cell line was provided by Dr. Stuart Sealfon, Mount Sinai Medical School New York, N.Y. These cells were grown in DMEM supplemented with 0.2 g/L G418 100 U/ml penicillin/streptomycin and 10% FBS. Both GGH3 and hGnRH-R/293 cells were utilized for both for both total inositol phosphate measurement and for microphysiometry assessment of compound efficacy.

[1] = test system: LH levels in castrated rats; assay: Castrated male rat model, LH suppression; assay type: in vivo
Text: Experimental Protocol: Male Sprague-Dawley (225-250 g) rats were castrated and allowed 10 days postoperative recovery. Ten days post castration animals were instrumented with indwelling femoral venous and arterial catheters to facilitate remote infusions and blood sampling. On the day of the experiment, animals were allowed to acclimate to the procedure room while residing in their home cage. Basal blood samples were drawn from all animals. Following basal sampling, either vehicle (10% DMSO, 10% cremophor/saline), Antide (1.0 μg) or compound 11 (10 mg/kg) was administered intravenously. Blood samples were drawn 10, 60, 90, 120, 180, 240 minutes after injections. Blood was centrifuged, serum collected and stored in −70° freezer until assayed. Serum samples were analyzed using DSL-4600 ACTIVE LH coated-tube immunoradiometric assay kit from Diagnostic Systems Laboratories, Inc.
Surgical removal of the gonads removes circulating testosterone and eliminates the negative feedback of testosterone on the hypothalamus. […] This model seems suitable for evaluating small molecule GnRH antagonists.
Male Sprague-Dawley ([…]) rats were castrated via the scrotal approach under halothane anesthesia. Animals were allowed 14 days post operative recovery prior to study. Thirteen days following castration, animals were anesthetized with halothane and instrumented with indwelling jugular vein cannula. Details of the cannulation procedure have been described previously {Harms and Ojeda, 1974)}. On study day, animals were allowed to acclimate to the procedure room while residing in their home cage. Basal blood samples were drawn from all animals. Immediately following basal sampling, vehicle or test compounds were administered by various routes. The routes of administration employed were intravenous (iv), intramuscular (im), intraperitoneal (ip), subcutaneous (sc) and oral (po). Blood samples were drawn into heparin containing tubes at multiple time points post treatment. Blood was centrifuged immediately, plasma collected and stored in −20° freezer until assayed. Plasma samples were analyzed using DSL-4600 ACTIVE LH coated-tube immunoradiometric assay kit from Diagnostic Systems Laboratories, Inc.
Formulation #1 (denoted with superscript 1): 10% DMSO, 10% Cremophor EL and 80% physiological saline.
Formulation #2 (denoted with superscript 2): 10% Cremophor EL and 90% physiological saline.

Glucagon = Glucagon (Homo sapiens, UniProt P47871); assay: Selectivity: Glucagon
Chain of Glucagon (P47871 26-477): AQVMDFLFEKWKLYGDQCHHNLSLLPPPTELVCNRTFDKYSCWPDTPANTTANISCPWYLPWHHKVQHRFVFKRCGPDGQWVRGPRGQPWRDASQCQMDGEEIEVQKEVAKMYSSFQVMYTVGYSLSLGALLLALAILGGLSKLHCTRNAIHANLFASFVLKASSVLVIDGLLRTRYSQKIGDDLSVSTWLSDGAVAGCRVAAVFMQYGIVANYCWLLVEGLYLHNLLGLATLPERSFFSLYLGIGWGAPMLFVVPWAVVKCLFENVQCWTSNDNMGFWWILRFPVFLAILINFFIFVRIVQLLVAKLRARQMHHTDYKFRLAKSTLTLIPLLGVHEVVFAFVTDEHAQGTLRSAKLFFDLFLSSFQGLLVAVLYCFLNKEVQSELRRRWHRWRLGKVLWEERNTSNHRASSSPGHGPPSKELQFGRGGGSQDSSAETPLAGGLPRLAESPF

5-HT2a = 5-HT2a (Homo sapiens, UniProt P28223); assay: Selectivity: 5-HT2a
Chain of 5-HT2a (P28223 whole entry, species assumed): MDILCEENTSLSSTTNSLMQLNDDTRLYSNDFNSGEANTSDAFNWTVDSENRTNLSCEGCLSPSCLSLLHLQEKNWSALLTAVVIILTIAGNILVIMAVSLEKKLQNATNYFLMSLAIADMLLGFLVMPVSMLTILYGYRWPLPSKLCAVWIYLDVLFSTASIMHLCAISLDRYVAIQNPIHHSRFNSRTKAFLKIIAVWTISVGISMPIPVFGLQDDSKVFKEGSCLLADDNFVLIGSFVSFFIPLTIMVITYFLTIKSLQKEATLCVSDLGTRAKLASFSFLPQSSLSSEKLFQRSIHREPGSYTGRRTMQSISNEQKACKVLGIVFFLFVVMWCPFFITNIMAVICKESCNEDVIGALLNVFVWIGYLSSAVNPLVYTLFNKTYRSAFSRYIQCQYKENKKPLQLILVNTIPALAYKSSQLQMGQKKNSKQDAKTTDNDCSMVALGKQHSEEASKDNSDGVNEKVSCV

GLP-1 = GLP-1 (Homo sapiens, UniProt P43220); assay: Selectivity: GLP-1
Chain of GLP-1 (P43220 24-463): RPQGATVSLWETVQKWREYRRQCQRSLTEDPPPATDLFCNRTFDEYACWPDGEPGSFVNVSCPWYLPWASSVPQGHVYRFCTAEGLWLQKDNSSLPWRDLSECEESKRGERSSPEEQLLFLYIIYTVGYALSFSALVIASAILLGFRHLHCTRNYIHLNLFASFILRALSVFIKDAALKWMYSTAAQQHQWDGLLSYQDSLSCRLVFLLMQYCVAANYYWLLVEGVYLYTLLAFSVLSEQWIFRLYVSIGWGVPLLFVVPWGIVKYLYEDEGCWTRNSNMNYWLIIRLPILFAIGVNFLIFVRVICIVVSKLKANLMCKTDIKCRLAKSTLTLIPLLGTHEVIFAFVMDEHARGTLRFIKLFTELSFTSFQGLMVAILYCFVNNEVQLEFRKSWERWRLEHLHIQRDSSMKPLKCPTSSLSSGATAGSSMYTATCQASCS

[2] = Metabolism rate, pmol/min/mg at 1 μM, rat male; assay type: in vitro ADME; conditions: 1 μM compound
[3] = Metabolism rate, pmol/min/mg at 1 μM, rat female; assay type: in vitro ADME; conditions: 1 μM compound
[4] = Metabolism rate, pmol/min/mg at 1 μM, dog; assay type: in vitro ADME; conditions: 1 μM compound
[5] = Metabolism rate, pmol/min/mg at 1 μM, monkey; assay type: in vitro ADME; conditions: 1 μM compound

- inhibition of GnRH-stimulated total inositol phosphate accumulation (hGnRH receptor; half-maximal concentration of GnRH (1 nM)): able to inhibit the stimulation
SMILES: CC(=O)N[C@H](Cc1ccc2ccccc2c1)C(=O)N[C@H](Cc1ccc(Cl)cc1)C(=O)N[C@H](Cc1cccnc1)C(=O)N[C@@H](CO)C(=O)N[C@@H](CCCCNC(=O)c1cccnc1)C(=O)N[C@H](CCCCNC(=O)c1cccnc1)C(=O)N[C@@H](CC(C)C)C(=O)N[C@@H](CCCCNC(C)C)C(=O)N1CCC[C@H]1C(=O)N[C@H](C)C(N)=O [Antide, reference compound] (Ac-[d2Nal][dPhe(4-Cl)][d3Pal]SK(Nicotinoyl)[dK](Nicotinoyl)L[Lys(iPr)]P[dA]-NH2)
- stimulation of total [3H]inositol phosphates by compound alone (hGnRH receptor; compound alone, no GnRH): Neither compound alone stimulated an increase
- LH in CX rats ([1]; Antide 2.0 and 20 ug, sc): reduces LH levels; also recorded: suppresses LH
- LH in castrated rat model ([1]; intravenous, Antide 1.0 μg, compound 11 10 mg/kg): reduces LH

SMILES: COc1cccc(OC)c1NC(=O)c1ccc(Cc2cc3c(cc2C)C(C)(C)CCC3(C)C)o1 [Compound 20]
- IC50 (Glucagon): 6.7 µM
- Ki (Glucagon): 6.7 µM
- Ki (5-HT2a): 2350 nM
- IC50 (GLP-1): > 10 µM
- Ki (GLP-1): > 10 µM

- IC50 (Glucagon): 6.3 µM
- Rat male pmol/min/mg 1 μM [2]: 2869 pmol/min/mg
- GnRH functional (hGnRH receptor): Antag- onist
- IC50 (GLP-1): > 10 µM
- Rat female pmol/min/mg 1 μM [3]: 135 pmol/min/mg
SMILES: Cc1cc2c(cc1Cc1ccc(C(=O)NCc3nc4ccccc4[nH]3)o1)C(C)(C)CCC2(C)C [Compound 48]
- % Max LH Suppression ([1]; 10 mg/kg iv): 75%
- time of % Max LH Suppression ([1]; 10 mg/kg iv): 0.5 h
- ≧50% Suppression Duration ([1]; 10 mg/kg iv): <1 h
- % Max LH Suppression ([1]; 20 mg/kg iv): 51%
- time of % Max LH Suppression ([1]; 20 mg/kg iv): 1 h
- ≧50% Suppression Duration ([1]; 20 mg/kg iv): 1 h

- Rat male pmol/min/mg 1 μM [2]: 2393 pmol/min/mg
SMILES: Cc1cc2c(cc1Cc1ccc(C(=O)NCc3cccc(CNc4nccc(NCC5CCCO5)n4)c3)o1)C(C)(C)CCC2(C)C (stereo not shown) [Compound 70]

SMILES: Cc1cnc(CNC(=O)c2ccc(Cc3cc4c(cc3C)C(C)(C)CCC4(C)C)o2)cn1 [Compound 13]
- IC50 (Glucagon): 7.9 µM
- Kb (hGnRH receptor): 85 nM
- IC50 (GLP-1): > 10 µM

SMILES: Cc1cc2c(cc1Cc1ccc(C(=O)NC[C@H]3CC[C@H](CNC(=N)N)CC3)o1)C(C)(C)CCC2(C)C [Compound 10]
- IC50 (Glucagon): 6.6 µM
- Ki (5-HT2a): 1200 nM
- Kb (hGnRH receptor): 95 nM

- Rat male pmol/min/mg 1 μM [2]: 4437 pmol/min/mg
- GnRH functional (hGnRH receptor): Antag- onist
- Dog pmol/min/mg 1 μM [4]: 3071 pmol/min/mg
- Range of Plasma Conc. ([1]; 20 mg/kg po): 0.29 µM
- Range of Plasma Conc. ([1]; 40 mg/kg po): 0.72 µM
- Monkey pmol/min/mg 1 μM [5]: 5959 pmol/min/mg
- Rat female pmol/min/mg 1 μM [3]: 271 pmol/min/mg
SMILES: Cc1cc2c(cc1Cc1ccc(C(=O)NCc3cccc(CNc4ccnc(NC[C@@H]5CCCO5)n4)c3)o1)C(C)(C)CCC2(C)C [Compound 136]
- % Max LH Suppression ([1]; 5.0 mg/kg iv): 48%
- time of % Max LH Suppression ([1]; 5.0 mg/kg iv): 1 h
- ≧50% Suppression Duration ([1]; 5.0 mg/kg iv): 1.0 h
- % Max LH Suppression ([1]; 10 mg/kg iv): 74%
- time of % Max LH Suppression ([1]; 10 mg/kg iv): 2 h
- ≧50% Suppression Duration ([1]; 10 mg/kg iv): 6 h
- % Max LH Suppression ([1]; 20 mg/kg iv): 98%
- time of % Max LH Suppression ([1]; 20 mg/kg iv): 4 h
- ≧50% Suppression Duration ([1]; 20 mg/kg iv): ≧6 hr
